Assay results published in patent US20250326785A1, “SODIUM SALT AND ETHANOLAMINE SALT OF 23-HYDROXYTORMENTIC ACID” (HUYABIO International, LLC, priority 2024, published 2025).
Read-outs that look alike come from different tables or passages of the source.

Assays:
[1] = Stability study at 25° C./60% RH, 40° C./75% RH and 60° C. (XRPD, HPLC purity, impurity tracking); conditions: for XRPD: * = crystalline salt; for HPLC: based on free acid
Source text: Stability of HBI-3808 Sodium Salt Pattern 2 was studied over 13 weeks.
Table 2F presents impurity tracking results from a 13-week stability study of HBI-3808 sodium salt of Pattern 2. […]

[2] = for HPLC Conc.: 24 h, starting concentration 100 mg/mL; for HPLC Conc. / HPLC Conc./: based on free acid
Source text: pH-dependent solubility of the HBI- 3808 sodium salt of Pattern 2 was studied.
pH dependent solubility of the HBI- 3808 sodium salt of Pattern 5 was studied.

[3] = Varying humidity (VH)-XRPD; assay type: physicochemical; conditions: 0-90% RH
Procedure: During the sorption phase, sodium salt Pattern 2 was observed between 40-60% RH. […] A mixture of sodium salt Pattern 2 and 5 was also observed at 80% RH. […] During the second desorption, from 90% RH to 40% RH, sodium salt Pattern 5 was maintained.
VH-XRPD analysis was carried out between 40-0% RH (FIG. 5L).

With `C[C@@H]1CC[C@]2(C(=O)O)CC[C@]3(C)C(=CC[C@@H]4[C@@]5(C)C[C@@H](O)[C@H](O)[C@@](C)(CO)[C@@H]5CC[C@]43C)[C@@H]2[C@]1(C)O.NCCO` [ethanolamine salt of HBI-3808, ETHANOLAMINE SALT OF 23-HYDROXYTORMENTIC ACID] as the compound, how does the “RRT 1.000 (HBI-3808)” value ([1]; 40° C./75% RH, 8 weeks) read?
The value was 96.88 % area.

What about the “RRT 1.025 (Isomer of HBI-3808)” value ([1]; 40° C./75% RH, 8 weeks) of the same compound?
Its value is 2.51 % area.

What about the “RRT 1.767 impurity” value ([1]; 40° C./75% RH, 8 weeks) of the same compound?
The value was 0.40 % area.

What about the “Total Impurities” value ([1]; 40° C./75% RH, 8 weeks) of the same compound?
Its value is 3.12 % area.

What about the “RRT 1.000 (HBI-3808)” value ([1]; 40° C./75% RH, 13 weeks) of the same compound?
The value was 97.41 % area.

And the “RRT 1.025 (Isomer of HBI-3808)” value ([1]; 40° C./75% RH, 13 weeks)?
The value was 2.40 % area.

And the “RRT 1.935 impurity” value ([1]; 40° C./75% RH, 13 weeks)?
Its value is 0.20 % area.

What about the “Total Impurities” value ([1]; 40° C./75% RH, 13 weeks) of the same compound?
The value was 2.59 % area.

And the “RRT 1.000 (HBI-3808)” value ([1]; 40° C./75% RH, T = 0)?
Its value is 97.82 % area.

What about the “RRT 1.025 (Isomer of HBI-3808)” value ([1]; 40° C./75% RH, T = 0) of the same compound?
Its value is 2.18 % area.

And the “Total Impurities” value ([1]; 40° C./75% RH, T = 0)?
Its value is 2.18 % area.

What about the HPLC/ % area ([1]; 60° C. (closed vial), 13 Weeks) of the same compound?
The HPLC/ % area was 97.4 % area.

What about the XRPD ([1]; 60° C. (closed vial), 1 Week) of the same compound?
The XRPD was 1*.

What about the HPLC ([1]; 60° C. (closed vial), 1 Week) of the same compound?
Its HPLC is 97.5 % area.

And the XRPD ([1]; 60° C. (closed vial), 2 Weeks)?
Its XRPD is 1*.

What about the HPLC ([1]; 60° C. (closed vial), 2 Weeks) of the same compound?
The HPLC was 97.3 % area.

What about the XRPD ([1]; 60° C. (closed vial), 4 Weeks) of the same compound?
Its XRPD is 1*.

What about the HPLC ([1]; 60° C. (closed vial), 4 Weeks) of the same compound?
The HPLC was 97.5 % area.

And the XRPD ([1]; 60° C. (closed vial), 8 Weeks)?
The XRPD was 1*.

And the HPLC ([1]; 60° C. (closed vial), 8 Weeks)?
The HPLC was 97.0 % area.

And the XRPD ([1]; 60° C. (closed vial), 13 Weeks)?
Its XRPD is 1*.

And the HPLC ([1]; 60° C. (closed vial), 13 Weeks)?
Its HPLC is 97.4 % area.

What about the “RRT 0.801 impurity” value ([1]; 60° C., 1 week) of the same compound?
Its value is 0.12 % area.

What about the “RRT 1.000 (HBI-3808)” value ([1]; 60° C., 1 week) of the same compound?
Its value is 97.46 % area.

And the “RRT 1.025 (Isomer of HBI-3808)” value ([1]; 60° C., 1 week)?
Its value is 2.43 % area.

And the “Total Impurities” value ([1]; 60° C., 1 week)?
The value was 2.54 % area.

What about the “RRT 0.970 impurity” value ([1]; 60° C., 2 weeks) of the same compound?
Its value is 0.12 % area.

And the “RRT 1.000 (HBI-3808)” value ([1]; 60° C., 2 weeks)?
The value was 97.27 % area.

What about the “RRT 1.025 (Isomer of HBI-3808)” value ([1]; 60° C., 2 weeks) of the same compound?
The value was 2.41 % area.

What about the “RRT 1.935 impurity” value ([1]; 60° C., 2 weeks) of the same compound?
The value was 0.20 % area.

What about the “Total Impurities” value ([1]; 60° C., 2 weeks) of the same compound?
The value was 2.73 % area.

And the “RRT 0.970 impurity” value ([1]; 60° C., 4 weeks)?
Its value is 0.11 % area.

And the “RRT 1.000 (HBI-3808)” value ([1]; 60° C., 4 weeks)?
Its value is 97.49 % area.

What about the “RRT 1.025 (Isomer of HBI-3808)” value ([1]; 60° C., 4 weeks) of the same compound?
The value was 2.40 % area.

And the “Total Impurities” value ([1]; 60° C., 4 weeks)?
Its value is 2.51 % area.

What about the “RRT 0.970 impurity” value ([1]; 60° C., 8 weeks) of the same compound?
The value was 0.12 % area.

And the “RRT 1.000 (HBI-3808)” value ([1]; 60° C., 8 weeks)?
The value was 97.04 % area.

And the “RRT 1.025 (Isomer of HBI-3808)” value ([1]; 60° C., 8 weeks)?
Its value is 2.49 % area.

And the “RRT 1.767 impurity” value ([1]; 60° C., 8 weeks)?
The value was 0.35 % area.

What about the “Total Impurities” value ([1]; 60° C., 8 weeks) of the same compound?
The value was 2.96 % area.

And the “RRT 1.000 (HBI-3808)” value ([1]; 60° C., 13 weeks)?
Its value is 97.41 % area.

What about the “RRT 1.025 (Isomer of HBI-3808)” value ([1]; 60° C., 13 weeks) of the same compound?
Its value is 2.41 % area.

What about the “RRT 1.935 impurity” value ([1]; 60° C., 13 weeks) of the same compound?
The value was 0.18 % area.

And the “Total Impurities” value ([1]; 60° C., 13 weeks)?
Its value is 2.59 % area.

And the “RRT 1.000 (HBI-3808)” value ([1]; 60° C., T = 0)?
The value was 97.82 % area.

What about the “RRT 1.025 (Isomer of HBI-3808)” value ([1]; 60° C., T = 0) of the same compound?
The value was 2.18 % area.

What about the “Total Impurities” value ([1]; 60° C., T = 0) of the same compound?
Its value is 2.18 % area.

What about the “input purity by HPLC” value ([1]; input material of the stability study (baseline)) of the same compound?
The value was 97.5 % area.

What about the “XRPD of recovered solids” value ([2]; FaSSGF) of the same compound?
Its value is “consistent with ethanolamine salt”.

And the “final Measured pH” value ([2]; FaSSGF)?
Its value is 8.62.

What about the “HPLC Conc.” value ([2]; FaSSGF, final pH 8.62) of the same compound?
The value was 57.2 mg/mL.

What about the “XRPD pattern of recovered solids” value ([2]; FaSSGF, *** = crystalline salt) of the same compound?
Its value is 1***.

What about the “HPLC Conc./” value ([2]; FaSSGF) of the same compound?
Its value is 57.2 mg/mL.

And the concentration ([2]; pH 1.2)?
Its concentration is under 1000 ng/mL.

What about the “XRPD of recovered solids” value ([2]; target pH 1.2) of the same compound?
Its value is “Amorphous solids”.

And the “HPLC Conc.” value ([2]; target pH 1.2 buffer)?
Its value is under 0.001 mg/mL.

What about the “XRPD of recovered solids” value ([2]; target pH 3.0) of the same compound?
The value was “consistent with HBI-3808 free acid of Pattern 1”.

What about the “HPLC Conc.” value ([2]; target pH 3.0 buffer) of the same compound?
The value was under 0.001 mg/mL.

And the “XRPD pattern of recovered solids” value ([2]; target pH 3.0 buffer, ** = free acid)?
The value was 1**.

What about the “XRPD of recovered solids” value ([2]; target pH 4.0) of the same compound?
Its value is “consistent with HBI-3808 free acid of Pattern 1”.

And the “HPLC Conc.” value ([2]; target pH 4.0 buffer)?
Its value is under 0.001 mg/mL.

What about the “XRPD pattern of recovered solids” value ([2]; target pH 4.0 buffer, ** = free acid) of the same compound?
The value was 1**.

And the “XRPD of recovered solids” value ([2]; target pH 6.8)?
The value was “Amorphous solids”.

What about the “HPLC Conc.” value ([2]; target pH 6.8 buffer) of the same compound?
Its value is 0.5 mg/mL.

What about the “HPLC Conc./” value ([2]; target pH 6.8 phosphate buffer) of the same compound?
The value was 0.5 mg/mL.

And the “XRPD of recovered solids” value ([2]; target pH 8.0)?
The value was “Amorphous solids”.

What about the “HPLC Conc.” value ([2]; target pH 8.0 buffer) of the same compound?
Its value is 17.7 mg/mL.

And the “HPLC Conc./” value ([2]; target pH 8.0 phosphate buffer)?
Its value is 17.7 mg/mL.

What about the “XRPD pattern / form stability over relative humidity” value [3] of the same compound?
The value was “no changes in XRPD Pattern”.
